{"source": "patent US9345742B2", "about": "“Aminostatin derivatives for the treatment of arthrosis” (MERCK PATENT GMBH, priority 2011, dated 2016)", "key": {"[1]": {"molecular_target": "cathepsin D isolated from the human liver (Homo sapiens (Human), UniProt P07339)", "sequence (P07339 65-161)": "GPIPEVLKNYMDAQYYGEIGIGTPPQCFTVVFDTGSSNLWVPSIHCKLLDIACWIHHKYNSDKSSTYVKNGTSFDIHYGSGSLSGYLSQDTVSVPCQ", "sequence (P07339 169-412)": "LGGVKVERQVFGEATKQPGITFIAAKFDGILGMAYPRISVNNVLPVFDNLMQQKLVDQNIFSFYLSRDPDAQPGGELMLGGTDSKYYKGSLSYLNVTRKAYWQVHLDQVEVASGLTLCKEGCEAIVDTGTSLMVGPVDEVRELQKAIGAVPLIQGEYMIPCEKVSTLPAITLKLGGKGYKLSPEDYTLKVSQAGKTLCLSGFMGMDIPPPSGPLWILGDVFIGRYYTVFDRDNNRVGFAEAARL", "assay": "In-vitro fluorescence assay for identification of cathepsin D inhibitors", "assay_type": "biochemical", "details": "cathepsin D 1.4 nM, pH 5.5; read-out: CatD assay IC50-", "procedure,_shortened": "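A FRET-quenched MCA/Dnp peptide (5 μM final) was cleaved by 1.4 nM liver-derived human cathepsin D at pH 5.5 in sodium acetate buffer containing CHAPS and 1.25% DMSO. Enzyme and compound dilutions were first incubated 10 min.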"}, "bovine explants": {"tested_on": "bovine explants", "assay": "Cartilage explant assay (pH-induced cartilage degradation, GAG liberation)", "assay_type": "cell-based", "details": "Bos taurus, 72 h, pH 5.5, 3 days", "source_text": "In order to investigate the effect of potential cathepsin D inhibitors on cartilage degradation, a pH-induced model based on bovine explants is used. The pH of the medium in which the explants are cultivated is matched here to the pathophysiological pH of an arthrotic knee. This pH is pH 5.5. In this ex vivo model, potential cathepsin D inhibitors are subsequently investigated for their action with respect to stopping of the cartilage degradation process. If the cartilage is destroyed, glycosaminoglycans (GAGs) are released into the cell culture supernatant. The amount of GAGs liberated can be determined quantitatively with the aid of DMMB (dimethylmethylene blue hydrochloride). If sulfated GAGs are detected using dimethylmethylene blue hydrochloride, the decrease in the absorption at 633 nm is utilised. […] In order to determine the concentration, a calibration line is also recorded using chondroitin sulfate.\nThe bovine explants are firstly prepared. The induction of the cartilage degradation is carried out in 96-multiwell plates. One explant is cultivated per well. In each case, 200 μl of DMEM (incubation medium pH 5.5) without FBS+30 μg/ml of ascorbic acid are added. Thus negative control, explants (n=4) are incubated at pH 7.4 (without FBS). This control is not included in the calculation of the data, but instead ensures that the pH change has the desired effect on the liberation of GAG. At this point, the substances to be tested are added. No preincubation of the explants is carried out. The explants are cultivated with the corresponding substances for 3 days in the incubator at 37° C. and 7.5% CO2.\nIn order to investigate the effect of cathepsin D inhibitors on the liberation of GAG (glycosaminoglycan), the substances are employed in the desired concentration and cultivated for 3 days. The compounds to be tested are tested in a first experiment in a concentration of 1 μM and 1% of DMSO. Substances which have an effect of >50% on the liberation of GAG (this corresponds to <50% of the control in the Assay Explorer) are tested in the next experiment at 100 nM and 1% of DMSO. Substances which have an effect of >50% on the liberation of GAG under these conditions (this corresponds to <50% of the control in the Assay Explorer) are tested in a concentration/effect relationship. The compounds here are investigated in the following concentrations: 30 μM, 10 μM, 3 μM, 1 μM, […], 0.1 μM, 0.03 μM, 0.01 μM.\nThe positive control used is pepstatin A with a concentration of 0.01 μM. The assay window is defined by the control (pH 5.5), defined as 0% effect, and the control pH 5.5+0.01 μM pepstatin A, defined as 100% effect. After incubation for 3 days, the cell culture supernatants are collected and stored at −20° C. or measured directly. The amount of liberated GAG is measured photometrically.\nThe effect (1 value) of the respective substance in % based on the positive control (pH 5.5+0.01 μM pepstatin A) and the negative control (pH 5.5) is reported for concentrations of 1 μM and 100 nM. The value represents the average of 4 replicants. In the determination of a concentration/effect relationship, an IC50 value is reported to the database (Assay Explorer).\nThe cell culture supernatants (200 μl) are either measured directly or stored at −20° C. In order to ensure an accurate determination of the concentration (μg/ml of GAG in the supernatant) of GAG, the measurement values must be located in the linear region of the standard curve. In order to ensure this, various dilutions are routinely introduced (1/5, 1/10, 1/20, 1/40). The dilutions are prepared with medium and introduced automatically (Hamilton) into a 384-well plate (15 μl). 60 μl of DMMB solution are likewise added automatically (or using a multichannel pipette). A rapid colour reaction occurs, which is subsequently measured at 633 nm using a plate reader (for example Envision)."}}}
{"smiles": "CCC(CC)NC(=O)[C@@H](NC(=O)C[C@H](N)[C@H](Cc1ccccc1)NC(=O)[C@@H](NC(=O)[C@H](CC(C)C)NC(=O)CC(C)C)C(C)C)[C@@H](C)CC", "note": "[Compound 39, N-[(1S,2S)-1-(1-Ethylpropylcarbamoyl)-2-methylbutyl]-(S)-3-(S)-amino-4-{(S)-3-methyl-2-[(S)-4-methyl-2-(3-methylbutyryl-amino)pentanoylamino]butyrylamino}-5-phenylpentanamide]", "values": [{"measurement": "IC50", "setting": "[1]", "value": 9.9, "unit": "nM"}, {"measurement": "IC50", "setting": "bovine explants", "value": 0.233, "unit": "nM"}]}
